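Dose response: 5 concentrations. Exposure: 48 h. Format: 96-well plates. Endpoint: linear interpolation; highest concentration if not reached. TGI: total growth inhibition.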
Columns and labels:
Assay in all cases: NCI tumour cell line growth inhibition, 48 h
[1] = system: SNB-75 CNS
[2] = system: UACC-62 melanoma
[3] = system: RXF 393 renal
[4] = system: UO-31 renal
[5] = system: NCI-H460 lung
[6] = system: NCI-H522 lung
[7] = system: MOLT-4 leukemia
[8] = system: CCRF-CEM leukemia
[9] = system: OVCAR-8 ovarian
[10] = system: HL-60(TB) leukemia

Structure (SMILES)	TGI [1] [µM]	TGI [2] [µM]	TGI [3] [µM]	TGI [4] [µM]	TGI [5] [µM]	TGI [6] [µM]	TGI [7] [µM]	TGI [8] [µM]	TGI [9] [µM]	TGI [10] [µM]
O=C(CSc1nnc(-c2ccc(N=Cc3ccc(Cl)cc3)cc2)o1)Nc1cccc(Cl)c1	> 100	> 100	> 100	> 100	> 100	> 100	> 100	> 100	> 100	> 100
COc1cc2c(cc1O)C(C)Cc1cc3c(cc1N(C)CC2)OCO3 (stereo not given)	9	12	9.48	37.8	37.7	4.94	36.5	> 46.8	37.5	> 58.8
COc1cc(/C=C(\C#N)c2ccccn2)cc(Br)c1O	> 100	> 100	> 100	> 100	> 100	> 100	> 100	> 100	> 100	> 100
N/N=C(\C(=O)Nc1ccc([N+](=O)[O-])cc1)C(C1=Nc2cc([N+](=O)[O-])ccc2NC1)[N+](=O)[O-] (stereo not given)	> 100	> 100	> 100	> 100	> 100	> 100	> 100	> 100	> 100	> 100
CC1(C)C2CCC1(CC(=O)O)C(Cl)C2 (stereo not given)	> 100	> 100	> 100	> 100	> 100	> 100	> 100	> 100	> 100	> 100
COc1cc2c(cc1OC)C(Cc1c3ccccc3cc3ccccc13)N(C)CC2 (stereo not given)	37.2	40.8	32.5	57.4	61.3	60	58.3	93	> 90.7	31.3
Cc1cccc(NC(=S)N/N=C(/c2ccccc2)c2ccccn2)c1	22.1	15.5	13.2	10.4	8.91	14.6	> 6.59	1.48	15.4	1.53
C=C(C(=O)O)[C@@H]1C[C@@H]2O[C@H]1CC(C)=CCC/C(C)=C/CC[C@@]2(C)O	> 100	> 100	> 100	> 100	> 100	> 100	> 100	> 100	> 100	> 100
CCNCCCCNCC	> 3750	> 3750	> 3750	> 3400	> 1190	> 3750	> 3750	> 3750	> 3750	> 1190
COC(Cc1ccccc1)NC(C)=O (stereo not given)	> 100	> 100	> 100	> 100	> 100	> 100	> 100	> 100	> 100	> 100
CN1CCN(c2ccc(-n3cc(C(=O)O)c(=O)c4cc(F)c(N5CCN(C)CC5)cc43)nc2)CC1	> 100	> 100	> 100	> 100	> 100	> 100	> 100	> 100	> 100	> 100
CC(=O)O[C@H]1[C@@H](N2CCN(C)CC2)C[C@H]2[C@@H]3CC=C4C[C@@H](N5CCCC5)CC[C@]4(C)[C@H]3CC[C@@]21C	> 100	> 100	71.8	> 100	> 100	> 100	> 100	> 100	> 100	30.1
CCOP(=O)(OCC)/C(C#N)=C/c1c(C)[nH]c2ccccc12	> 100	> 100	> 100	47.8	> 100	> 100	> 100	> 100	> 100	> 100
CCN(CC)C1=Nc2ccccc2-n2c(C)cnc2C1	> 100	> 100	> 100	> 100	> 100	> 100	> 100	> 100	> 100	> 100
O=C(O)CNS(=O)(=O)c1ccc(NC(=O)Nc2ccccc2)cc1	> 100	> 52.9	> 100	> 100	> 100	> 100	> 100	> 100	> 100	> 31.6
Nc1ccc(N)c2c1C(=O)c1c(N)ccc(N)c1C2=O	> 77.7	> 100	> 93.5	> 100	> 100	> 89.3	> 63.6	> 68.3	> 100	> 100
COC(=O)[C@@H]1C[C@]2(CC=C(C)C)c3ccccc3N(S(=O)(=O)c3ccccc3)[C@@H]2N1C(=O)OC	38.2	51.8	43.9	> 100	94	67.3	> 100	> 100	86.5	33.5

Reference: PubChem BioAssay (NCI)
